“And” between values parts separate entries of the source, which are not always exact repeats. Equal entries are not always repeated.
Experiments:
[1] = tested on: cell surface receptors of immune cells (ACS); test: Adsorption of enzyme fragmented dHSA on affinity column with biotinylated cell surface proteins (ACS), MALDI-TOF ms; format: binding, human; details: for Per cent adsobed: Table 6 A, molecular weight 700-3600 Da
Description: Based on the observation that immunoregulatory peptide sequences are present in serum albumin, there is the possibility that other sequences than the epitope of mAb A have immunoregulatory function. Therefore an artificial cell surface (ACS) was prepared as described in materials and methods. […]
To remove unfragmented albumin and enzyme, the sample was ultra filtered through an Amicon Ultra 4 (mw cut-off of 5000) or a Centriplus (mw cut-off 10000) centrifugal filter (Millipore AB, Solna, Sweden). The filtrate, containing fragmented dHSA without enzymes, was collected and diluted with PBS with Ca and Mg (GIBCO).
Buffy coats generated from 450 ml blood each was collected from 4 healthy donors. Erythrocytes were removed by sedimentation on 2% dextran T500 solution (Amersham Pharmacia Biotech AB, Uppsala Sweden) in 0.9% NaCl. Mononuclear cells (PBMC) were then isolated by Ficoll-Paque Plus (GE Healthcare Bioscience AB Sweden) density gradient centrifugation. The PBMC were then suspended in phosphate buffered saline (PBS) containing Ca and Mg (GIBCO) at a concentration of 10×10^6/ml. EZ Link Sulfo-NHS-biotin (Pierce USA) was added at a final concentration of 0.2 mg/ml and the mixture incubated on a shaker at room temperature for 10 min. Excess biotin was then removed by washing the PBMC in PBS. Biotinylated PBMC were then lysed by adding 1.0 ml ice-cold lysing buffer (50 mM Tris-HCL, pH 7.5, with 0.15 M NaCl, 5 mM MgCl2 containing 100 mM Octyl glucoside and 1 mM Phenylmethylsulfonyl fluoride) per 2×10^7 pelleted cells with gentle shaking, then incubated for 30 min. on ice. Debris was removed by centrifugation at 5000×g at 4° C. for 10 min and the supernatants was collected and pooled from all four donors. The lysate was then stored at −70° C. in polypropylene plastic tubes.
This amount of lysate corresponds to 36×10^7 mononuclear cells. It was added to a 1 ml Hitrap Streptavidin HP affinity column (Amersham Biosciences). To block possible remaining free biotin, 5 ml of 0.1 M glycine (Sigma) was added to the column. Unsaturated streptavidin on the column was then reacted with 150 ug biotin (Sigma) in binding buffer. The column was carefully washed with PBS and stored in PBS with 0.1% NaN3 at 4° C. until use.
27 ml biotinylated cell lysate in binding buffer (corresponding to 54×10^7 mononuclear cells) was added to 1.5 ml washed Streptavidin Sepharose HP (Amersham Biosciences). To block possible remaining free biotin, 25 ml of 0.1 M glycine (Sigma) was added to the Streptavidin Sepharose. Unsaturated streptavidin was then reacted with 225 μg biotin (Sigma) in binding buffer. The Streptavidin Sepharose was carefully washed in PBS. One ml of the biotinylated cell lysate coupled Streptavidin Sepharose was then packed in an empty column (Tricorn Empty High Performance Column, Amersham Bioscience) and washed with phosphate buffered saline (PBS) containing Ca and Mg (GIBCO).
The flow-through was collected with consideration taken to void volume and dilution of adsorbed sample by collecting in small portions of 0.2 ml. Thirty ul of each sample, including a control sample that has not been adsorbed, were dried in a Speed-Vac centrifuge.
Dried samples were reconstituted in 10 ul of 0.1% TFA. Zip Tip pipette tips (Millipore, USA) containing C18 reversed-phase media were used for desalting reconstituted samples. […] For the analysis of samples in the mass range 1500-9000 Da, one μl of each Zip Tip eluted sample was mixed with 1 μl of sinapinic acid ([…]). […] Mass identity search of resulting spectra was performed in the SwissProt or NCBI databases using MS-Fit.

[2] = tested on: PBMCs; test: PHA-induced proliferation of PBMC in the presence of albumin peptides and/or dHSA; format: cell-based, human
Description: Venous blood was drawn from healthy volunteers or from cancer patients in glass vacuum tubes with acid dextrose citrate solution A as anti-coagulant (Vacutainer, Becton Dickinson, Franklin Lakes, N.J.). Erythrocytes were removed by sedimentation on 2% dextran T500 solution (Amersham Pharmacia Biotech AB, Uppsala, Sweden) in 0.9% NaCl (this step was omitted for cultures with PHA-stimulation-see below). […] For cell cultures with PHA-stimulation, PBMC were washed in Hank's Balanced Salt Solution (HBSS) with 10% autologous plasma instead of RPMI/2% HSA. […] The cell suspension was stained with Turk's solution and the number of lymphocytes and monocytes in the PBMC preparation were counted in a hemocytometer. PBMCs were suspended in RPMI/2% HSA and the cell concentration adjusted to 5×10^5 lymphocytes/ml.
100 μl of the cell suspension were seeded into round-bottomed microtiter plates (Corning, N.Y., USA) followed by 100 μl of culture medium consisting of RPMI 1640 (Flow Laboratories, Irvine, Scotland) supplemented with 200 IU/ml Penicillin, 200 μg/ml Streptomycin (Flow laboratories) and 20% heat inactivated autologous serum. Phytohemagglutinin (PHA-P, Sigma Chemical Co, St. Louis, Mo.) at a final concentration of 5 or 10 μg/ml was then added.
All culture conditions were set up in triplicate wells. […] Mean values of disintegrations per minute (dpm) of triplicates were used for the calculations.

[3] = tested on: PBMC; test: LPS-induced IL-6 production by PBMC, effect of peptides; format: cell-based, human; details: PBMCs from one healthy control; lowest peptide concentration
Description: 100 μl of culture medium consisting of RPMI1640 supplemented with 200 IU/ml penicillin, 200 μg/ml streptomycin, 4 mM L-glutamine (Sigma Chemical, Mo., US) and 20% fresh heat-inactivated autologous serum were added to un-coated or -pre-coated microtiter plates followed by 100 μl of PBMC suspension (5×10^4 lymphocytes) in RPMI/2% HSA with peptides at the indicated concentrations. Lipoplysaccharide (LPS, Sigma Chemical Co, MO, US) was added at a final concentration of 0.05 ng/ml. […] All assay conditions were set up in triplicate wells. Supernatants (SNs) were harvested after 24 hrs and residual cells were removed by centrifugation in a refrigerated centrifuge (Beckman) at 2600×g for 5 minutes. SNs were frozen and stored at −70° C. IL-6 in cell culture SNs was measured by ELISA using the DuoSet® ELISA development kit for human IL-6 (R&D Systems Europe, Ltd., Abingdon, UK) following the manufacturer's recommended procedures. The lower limit of detection was 3.1 pg/ml. Samples were analysed as mean of triplicate wells.

[4] = Table 5 A, peptides generated by trypsin degradation of dHSA
[5] = PHA 5 μg/ml, peptides 10 μg/ml, 5 healthy controls and 4 patients
[6] = patient P46, lowest peptide concentration
[7] = peptides 10 μg/ml, lower dHSA concentrations
[8] = peptides 10 μg/ml, two highest dHSA concentrations
[9] = Table 6 B, ASP-DHSA, molecular weight 3200-9000 Da
[10] = Table 5 B, trypsin peptides selected for synthesis

AAFTECCQAADK [(K)AAFTECCQAADK (A), tryptic peptide of dHSA]
Per cent adsorbed [1, 4]: 0.29 Per cent

AVMDDFAAFVEK [570-581, tryptic peptide of dHSA]
Per cent adsorbed [1, 4]: 0.23 Per cent

CCAAADPHECYAK [384-396, tryptic peptide of dHSA]
Per cent adsorbed [1, 4]: 0.32 Per cent

DDKETCFAEEGKKLVAASQAALGL [ASP-N fragment of dHSA]
Per cent adsobed ([1]; ASP-DHSA): 1.00 Per cent

DETYVPKEFNAETFTHA [ASP-N fragment of dHSA]
Per cent adsobed ([1]; ASP-DHSA): 0.86 Per cent

DHVKLVNEVTEFAKTCVA [ASP-N fragment of dHSA]
Per cent adsobed ([1]; ASP-DHSA): 1.00 Per cent

DKLCTVATLRETYGEM [ASP-N fragment of dHSA]
Per cent adsobed ([1]; ASP-DHSA): 0.65 Per cent

DRVTKCCTESLVNRRPCFSALEV [ASP-N fragment of dHSA]
Per cent adsobed ([1]; ASP-DHSA): 0.87 Per cent

DSISSKLKECCEKPLLEKSHCIAEVEN [ASP-N fragment of dHSA]
Per cent adsobed ([1]; ASP-DHSA): 0.65 Per cent

ELFEQLGEYKF [peptide 2608]
effect on PHA induced proliferation of PBMCs [2, 5]: stimulatory effect in ¼ controls whereas ¾ patients were stimulated
effect on PHA induced proliferation of PBMCs [2, 6]: clear stimulatory activity
effect on dHSA enhanced PHA induced proliferation [2, 7]: stimulated the proliferative rate
effect on dHSA enhanced PHA induced proliferation [2, 8]: significantly inhibited the stimulatory activity
effect on LPS induced IL-6 production [3]: inhibitory

ETYGEMADCCAK [106-117, tryptic peptide of dHSA]
Per cent adsorbed [1, 4]: -0.08 Per cent

FKDLGEENFK [(R)FKDLGEENFK (A), tryptic peptide of dHSA]
Per cent adsorbed [1, 4]: 0.08 Per cent

ICTLSEKERQIKKQ TALVELVKHK PKATKEQLKA VM (ICTLSEKERQIKKQTALVELVKHKPKATKEQLKAVM) [ASP-N fragment of dHSA]
Per cent adsorbed [1, 9]: 1.00 Per cent

KLCT VATLRETYGE MA DCCAKQEP ERNECFLQHK (KLCTVATLRETYGEMADCCAKQEPERNECFLEHK; HOMO SAPIENS) [ASP-N fragment of dHSA]
Per cent adsorbed [1, 9]: 1.00 Per cent

KLVNEVTEFAKT [peptide 2604]
effect on LPS induced IL-6 production [3]: stimulatory

KYLYEIAR [(K)KYLYEIAR (R), tryptic peptide of dHSA]
Per cent adsorbed [1, 4]: 0.71 Per cent
Per cent adsorbed [1, 10]: 0.71 Per cent

LAKYICE NQDSISSKLK ECCEKPLLEK SHCIAEVEN (LAKYICENQDSISSKLKECCEKPLLEKSHCIAEVEN) [ASP-N fragment of dHSA]
Per cent adsorbed [1, 9]: 1.00 Per cent

LGE ENFKALVLIAFAQYLQQCPFEDHVKLVNEVTEFAKTCVA (LGEENFKALVLIAFAQYLQQCPFEDHVKLVNEVTEFAKTCVA; HOMO SAPIENS) [ASP-N fragment of dHSA]
Per cent adsorbed [1, 9]: 1.00 Per cent

LKECCEKPLLEK [299-310, tryptic peptide of dHSA]
Per cent adsorbed [1, 4]: 0.36 Per cent

NECFLQHK [(R)NECFLQHK (D), tryptic peptide of dHSA]
Per cent adsorbed [1, 4]: 0.22 Per cent

NEETFLKKYLYE [peptide 2605]
effect on PHA induced proliferation of PBMCs ([2]; PBMCs from K92, three peptide concentrations): biphasic response pattern
effect on dHSA modulated PHA stimulated proliferation ([2]; PBMCs from two healthy controls, two PHA concentrations): inhibited the stimulatory activity of dHSA
effect on PHA induced proliferation of PBMCs [2, 5]: inhibitory or stimulatory effects in one control each and one patient each
effect on PHA induced proliferation of PBMCs [2, 6]: clear stimulatory activity
effect on dHSA enhanced PHA induced proliferation [2, 7]: stimulated the proliferative rate
effect on dHSA enhanced PHA induced proliferation [2, 8]: significantly inhibited the stimulatory activity

QEPERNECFLQHK [(K)QEPERNECFLQHK (D), tryptic peptide of dHSA]
Per cent adsorbed [1, 4]: 0.26 Per cent and 0.18 Per cent

QNCELFEQLGEYK [414-426, tryptic peptide of dHSA]
Per cent adsorbed [1, 4]: 0.20 Per cent
Per cent adsorbed [1, 10]: 0.20 Per cent

RPCFSALEVDETYVPK [tryptic peptide of dHSA]
Per cent adsorbed [1, 4]: 0.42 Per cent

RVTKC CTESLVNRRPCFSALEVDETYVPKEFNAETFTFHA (RVTKCCTESLVNRRPCFSALEVDETYVPKEFNAETFTFHA; HOMO SAPIENS) [ASP-N fragment of dHSA]
Per cent adsorbed [1, 9]: 1.00 Per cent

SISSKLKECCEKPLLEK SHClAEVEN DEMPA (SISSKLKECCEKPLLEKSHCIAEVENDEMPA; HOMO SAPIENS) [ASP-N fragment of dHSA]
binding to ACS ([1]; asparaginase degraded dHSA): contradictory results

SLHTLFGDK [089-097, tryptic peptide of dHSA]
Per cent adsorbed [1, 4]: 0.36 Per cent

VF LGMFLYEYARRHPDYSVVLLLRLAKTYETTLEKCCAAA (VFLGMFLYEYARRHPDYSVVLLLRLAKTYETTLEKCCAAA; HOMO SAPIENS) [ASP-N fragment of dHSA]
Per cent adsorbed [1, 9]: 1.00 Per cent

VHTECCHGDLLECADDR [tryptic peptide of dHSA]
Per cent adsorbed [1, 4]: 0.13 Per cent

VPQVSTPTLVEVSR [tryptic peptide of dHSA]
Per cent adsorbed [1, 4]: 0.59 Per cent

YICENQDSISSK [287-298, tryptic peptide of dHSA]
Per cent adsorbed [1, 4]: 0.03 Per cent

YKAAFTECCQAADK [tryptic peptide of dHSA]
Per cent adsorbed [1, 4]: -0.37 Per cent

YLSVVLNQLCVLHEK TPVS DRVTKC CTESLVNRRP CFSALEV
Per cent adsorbed [1, 9]: 0.37 Per cent

YSVVLL LRLAKTYETT LEKCCAAADP HECYAKVF (YSVVLLLRLAKTYETTLEKCCAAADPHECYAKVF; HOMO SAPIENS) [ASP-N fragment of dHSA]
Per cent adsorbed [1, 9]: 1.00 Per cent
